The term IC50 denotes the concentration that gives 50% inhibition. A high value points to lower potency.

IC50 data for 1 compound are collected here from ChEMBL document CHEMBL3638997, “5-alkynyl-pyrimidines” (2013).

The experiment deals with Phosphatidylinositol 4,5-bisphosphate 3-kinase catalytic subunit alpha isoform (Homo sapiens, UniProt P42336). As to the kind of experiment: Filter-Binding-Assay: PI3Kalpha assay described herein provides IC50 values indicating the activity of the compounds inhibiting PI3 kinase alpha activity Inhibition of PI3 kinase is expected to be indicative of activity in treating conditions of excessive or anomalous cell proliferation, such as cancers. See also J. A. Engelman, Nature Reviews Cancer, 2009, 9, 550-562; A. Carnero, Expert Opin. ….
Phosphatidylinositol 4,5-bisphosphate 3-kinase catalytic subunit alpha isoform, sequence (P42336 whole entry, canonical isoform): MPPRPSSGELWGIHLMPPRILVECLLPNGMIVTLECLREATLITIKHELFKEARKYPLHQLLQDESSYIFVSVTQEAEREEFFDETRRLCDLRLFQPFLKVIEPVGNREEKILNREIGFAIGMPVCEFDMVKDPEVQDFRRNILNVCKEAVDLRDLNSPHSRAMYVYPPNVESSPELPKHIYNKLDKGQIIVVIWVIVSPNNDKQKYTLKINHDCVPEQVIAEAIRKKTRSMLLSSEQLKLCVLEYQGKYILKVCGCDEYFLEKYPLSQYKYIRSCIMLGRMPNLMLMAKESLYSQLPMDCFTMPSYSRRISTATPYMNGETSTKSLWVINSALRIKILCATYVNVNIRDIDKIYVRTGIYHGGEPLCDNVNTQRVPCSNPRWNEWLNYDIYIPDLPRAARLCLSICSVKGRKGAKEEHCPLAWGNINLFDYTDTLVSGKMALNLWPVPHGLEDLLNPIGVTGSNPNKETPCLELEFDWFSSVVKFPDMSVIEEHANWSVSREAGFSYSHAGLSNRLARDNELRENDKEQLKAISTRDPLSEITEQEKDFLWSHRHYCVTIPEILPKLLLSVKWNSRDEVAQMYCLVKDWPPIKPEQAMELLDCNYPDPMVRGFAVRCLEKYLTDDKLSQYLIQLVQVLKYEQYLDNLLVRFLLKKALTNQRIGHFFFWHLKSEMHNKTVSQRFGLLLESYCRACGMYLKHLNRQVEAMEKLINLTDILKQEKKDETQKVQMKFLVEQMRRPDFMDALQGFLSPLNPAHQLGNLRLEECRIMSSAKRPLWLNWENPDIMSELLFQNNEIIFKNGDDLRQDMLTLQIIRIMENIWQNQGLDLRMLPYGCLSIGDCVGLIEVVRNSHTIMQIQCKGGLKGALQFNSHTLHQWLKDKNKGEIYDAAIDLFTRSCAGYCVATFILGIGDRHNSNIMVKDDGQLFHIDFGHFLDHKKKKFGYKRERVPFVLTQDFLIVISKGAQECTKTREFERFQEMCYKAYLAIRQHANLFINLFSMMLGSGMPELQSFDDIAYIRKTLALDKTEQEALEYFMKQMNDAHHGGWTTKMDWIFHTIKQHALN

On to `CCc1ncnc(N2CCC(O)(CC)CC2)c1C#Cc1ccc(N)nc1`, for which the IC50 worked out at 15 nM.
